From US10851402B2, “Method for in vitro detection and monitoring of a disease by measuring disease-associated protease activity in extracellular vesicles” (Friedrich-Alexander-Universitaet Erlangen-Nuernberg, priority 2013, dated 2020)

What was measured:
[1] = test system: resting PBMC; assay: TNFα secretion of resting PBMC after incubation with EV; assay type: cell-based; details: EV-producing cells incubated with the inhibitor; EV incubated with resting PBMC (6 hours)
Protocol: PBMC stimulation with EV and measurement of Cytokine Secretion. PBMC ([…]) were added to each well of a 96-well-U-bottom plate in a total volume of 200 μl (RPMI). 10 μl of exosome preparation from transfected cells (corresponding to 2×10^6 cells or one 10 cm dish) were added per well and […]. When indicated 10 μl PHA (positive control), 50 μM TAPI-1 (Peptides International), or 10 μM U0126 (MAPK-Inhibitor, Promega) were used. Cytokines in the supernatant (200 μl) were measured via the CBA (Cytometric Bead Array) Human Soluble Protein Flex Set System (BD Biosciences).
For confirmation we incubated EV with resting PBMC (6 hours) and measured TNFα release.

[2] = molecular target: T1, TACE (Homo sapiens, UniProt P78536); assay: GFP-proTNF-RFP cleavage and endogenous TACE activity in Nef/mNAKC transfected 293T cells; assay type: cell-based; details: exposure of cultured 293T cells to TAPI
T1 construct: endogenous in cells; host or cells: 293T cells transfected with Nef/mNAKC (TACE itself not transfected)
T1 sequence (P78536 215-824): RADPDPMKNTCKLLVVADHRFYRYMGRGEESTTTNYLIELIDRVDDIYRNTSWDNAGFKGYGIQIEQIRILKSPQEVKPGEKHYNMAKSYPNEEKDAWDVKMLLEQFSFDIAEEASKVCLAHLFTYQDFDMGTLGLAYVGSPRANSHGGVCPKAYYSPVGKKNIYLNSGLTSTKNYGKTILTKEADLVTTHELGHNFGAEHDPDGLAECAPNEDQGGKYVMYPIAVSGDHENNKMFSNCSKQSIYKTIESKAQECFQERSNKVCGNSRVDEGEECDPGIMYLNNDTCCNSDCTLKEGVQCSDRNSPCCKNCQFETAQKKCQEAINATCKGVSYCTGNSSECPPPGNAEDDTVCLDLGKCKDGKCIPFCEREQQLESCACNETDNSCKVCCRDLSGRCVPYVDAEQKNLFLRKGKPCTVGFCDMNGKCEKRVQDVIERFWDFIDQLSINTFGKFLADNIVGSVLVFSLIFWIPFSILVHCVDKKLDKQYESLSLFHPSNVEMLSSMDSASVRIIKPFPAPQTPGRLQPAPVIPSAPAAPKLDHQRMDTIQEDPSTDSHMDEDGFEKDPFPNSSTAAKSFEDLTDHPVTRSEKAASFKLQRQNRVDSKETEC
Protocol: Transfections into 293T cells and protein assays. Transient transfections into 293T cells as well as immunoprecipitations and immunoblots were performed as described previously (Baur et al., 1997; Witte et al., 2004; Wolf et al., 2008). In general 20 μg of cellular protein lysate and 10 μg of EV lysate were loaded per lane. The latter corresponded to the secretion from 2-4 mio 293T cells within 48 h. Endogenous TACE activity was measured using SensoLyte®520 TACE (α-Secretase) Activity Assay Kit from AnaSpec, according to the manufacturer's procedures. Cell lysates were generated from 293T cells 24 h after tranfection of Nef/mNAKC. […]
While TACE seemed to be activated by Nef/mNAKC, it was not clear whether and where the protease was functionally active. […] We constructed a GFP-proTNF-RFP fusion protein (G-proTNF-R; FIG. 5A), expecting that the full-length protein would give a yellow signal, which upon TACE-mediated cleavage would mature into prodomain-associated green (GFP) and TNFα-associated red (RFP) fluorescence. […]
In 293T cells the transfected G-proTNF-R construct gave a double positive (GFP/RFP) signal in FACS and a yellow staining in confocal images (FIGS. 5B and E). […] In addition, we measured an increased activity of endogenous TACE in Nef/mNAKC transfected 293T cells using a commercial, substrate-based activity assay (FIG. 20B). […]

Compound | TNFα release [1] | effect of Nef/mNAKC and TACE on G-proTNF-R cleavage and endogenous TACE activity [2]
N#CC(=C(/N)Sc1ccccc1N)/C(C#N)=C(\N)Sc1ccccc1N [U0126] | significantly reduced | –
CC(C)C[C@H](CC(=O)NO)C(=O)N[C@@H](Cc1ccc2ccccc2c1)C(=O)N[C@@H](C)C(=O)NCCN [TAPI] | significantly reduced | reversed
Oc1ccc2ccccc2c1SSc1c(O)ccc2ccccc12 [IPA-3] | significantly reduced | –
